Test results as given in the NIST ThermoML archive (doi:10.1016/j.jct.2013.09.001).
Numbers after ± are expanded uncertainties.

Assays:
[1] = 101 kPa, Liquid; for viscosity: Concentric cylinders viscometry; for mass density: Vibrating tube method
[2] = xn = mol fraction of the nth substance listed; details: 101 kPa, Liquid, x1 = 1; for viscosity: Concentric cylinders viscometry; for mass density: Vibrating tube method

Row | Compound | mass density ([1]; 293.15 K) [kg/m3] | viscosity ([1]; 303.15 K) [mPa·s] | mass density ([1]; 303.15 K) [kg/m3] | viscosity ([1]; 313.15 K) [mPa·s] | mass density ([1]; 313.15 K) [kg/m3] | viscosity ([1]; 323.15 K) [mPa·s] | mass density ([1]; 323.15 K) [kg/m3] | viscosity ([1]; 333.15 K) [mPa·s] | mass density ([1]; 333.15 K) [kg/m3] | viscosity ([1]; 343.15 K) [mPa·s] | mass density ([1]; 343.15 K) [kg/m3] | viscosity ([1]; 353.15 K) [mPa·s] | mass density ([2]; 293.15 K) [kg/m3] | viscosity ([2]; 303.15 K) [mPa·s] | mass density ([2]; 303.15 K) [kg/m3] | viscosity ([2]; 313.15 K) [mPa·s] | mass density ([2]; 313.15 K) [kg/m3] | viscosity ([2]; 323.15 K) [mPa·s] | mass density ([2]; 323.15 K) [kg/m3] | viscosity ([2]; 333.15 K) [mPa·s] | also measured
1 | CN(CCO)CCO [N-methyldiethanolamine] | 1040.6 ± 0.5 | 57.3 ± 1.2 | 1032.8 ± 0.5 | 34.1 ± 0.7 | 1025.4 ± 0.5 | 21.6 ± 0.5 | 1017.8 ± 0.5 | 14.3 ± 0.3 | 1010 ± 0.5 | 9.9 ± 0.2 | 1002.3 ± 0.5 | 7.2 ± 0.2 | – | – | – | – | – | – | – | – | viscosity ([1]; 293.15 K): 103.3 ± 2.3 mPa·s
2 | CN(CCO)CCO [N-methyldiethanolamine] + CC(=O)[O-].CCCCn1cc[n+](C)c1 | – | – | – | – | – | – | – | – | – | – | – | – | 1040.6 ± 0.5 | 57.3 ± 1.2 | 1032.8 ± 0.5 | 34.1 ± 0.7 | 1025.4 ± 0.5 | 21.6 ± 0.5 | 1017.8 ± 0.5 | 14.3 ± 0.3 | viscosity ([2]; 293.15 K): 103.3 ± 2.3 mPa·s; mass density ([2]; 333.15 K): 1010 ± 0.5 kg/m3; viscosity ([2]; 343.15 K): 9.9 ± 0.2 mPa·s; mass density ([2]; 343.15 K): 1002.3 ± 0.5 kg/m3; viscosity ([2]; 353.15 K): 7.2 ± 0.2 mPa·s
3 | OCCNCCO [diethanolamine] | 1097.4 ± 0.5 | 386.6 ± 13 | 1090.5 ± 0.5 | 189.7 ± 5 | 1083.9 ± 0.5 | 101.2 ± 2.3 | 1077.1 ± 0.5 | 57.9 ± 1.2 | 1070.3 ± 0.5 | 35.3 ± 0.7 | 1063.5 ± 0.5 | 22.7 ± 0.5 | – | – | – | – | – | – | – | – | –
4 | OCCNCCO [diethanolamine] + CC(=O)[O-].CCCCn1cc[n+](C)c1 | – | – | – | – | – | – | – | – | – | – | – | – | 1097.4 ± 0.5 | 386.6 ± 13 | 1090.5 ± 0.5 | 189.7 ± 5 | 1083.9 ± 0.5 | 101.2 ± 2.3 | 1077.1 ± 0.5 | 57.9 ± 1.2 | mass density ([2]; 333.15 K): 1070.3 ± 0.5 kg/m3; viscosity ([2]; 343.15 K): 35.3 ± 0.7 mPa·s; mass density ([2]; 343.15 K): 1063.5 ± 0.5 kg/m3; viscosity ([2]; 353.15 K): 22.7 ± 0.5 mPa·s
